Usually IC50 stands for the concentration that gives 50% inhibition. As a reminder, the DC50 is the midpoint of the concentration-degradation curve.

For series [1], the target named is T1, androgen receptor (AR) splicing variant AR-v7 (Homo sapiens, UniProt P10275).
T1 construct: The degradation activity of compounds on AR-v7 in 22RV1 cells; host or cells: 22RV1 cells
T1 sequence (P10275 1-644 isoform P10275-3): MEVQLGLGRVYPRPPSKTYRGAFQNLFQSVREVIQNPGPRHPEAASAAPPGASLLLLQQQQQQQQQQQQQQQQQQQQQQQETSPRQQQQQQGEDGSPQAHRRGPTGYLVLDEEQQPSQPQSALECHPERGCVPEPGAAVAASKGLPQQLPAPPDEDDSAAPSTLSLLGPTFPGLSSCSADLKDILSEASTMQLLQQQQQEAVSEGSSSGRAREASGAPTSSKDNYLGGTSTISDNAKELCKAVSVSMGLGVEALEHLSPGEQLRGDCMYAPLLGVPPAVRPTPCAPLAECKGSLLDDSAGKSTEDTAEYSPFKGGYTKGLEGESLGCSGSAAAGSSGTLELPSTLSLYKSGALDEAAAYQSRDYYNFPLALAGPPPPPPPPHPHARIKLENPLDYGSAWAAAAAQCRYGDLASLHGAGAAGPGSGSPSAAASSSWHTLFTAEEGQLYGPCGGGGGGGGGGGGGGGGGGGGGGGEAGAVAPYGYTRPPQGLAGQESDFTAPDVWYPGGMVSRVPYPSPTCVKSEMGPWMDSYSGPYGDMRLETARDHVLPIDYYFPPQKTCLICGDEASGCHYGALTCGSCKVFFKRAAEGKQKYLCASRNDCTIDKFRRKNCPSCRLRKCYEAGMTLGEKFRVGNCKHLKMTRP
The series can be described thus: Degradation activity on androgen receptor splicing variant AR-v7 in 22RV1 cells (ELISA). In kind it is cell-based. Conditions: AR-v7 degradation in 22RV1 cells, 48 h, class symbols. In general terms: An ELISA detects its analyte on a solid surface through an enzyme-linked reagent.

Series [2] is described as follows: Pharmacokinetics in mice (plasma exposure after oral administration). In kind it is in vivo. Conditions: ICR mice, oral (i.g.) 3 mg/kg; for AUC(0-inf): mouse, read-out: After oral administration of 3 mg/kg, mouse plasma exposure AUCinf. On the procedure: • LC-20AD high performance liquid chromatography (SHIMADZU, Japan) • API4000 triple quadrupole mass spectrometer (Applied Biosystem, USA) • Phenix Winnolin Pharmacokinetic software (Version 6.3, Certara, USA) • High speed freezing centrifuge (Thermo Fisher Scientific) • Analytical balance (Sartorius, SECURA225D-ICN) • ICR mice (Chengdu Dossy Experimental Animals CO., LTD.)
A suitable amount of drug was accurately weighed, and then the medium (5% DMSO, 15% HS-15, 80% DSW) was added to prepare the solution at a concentration of 0.1 mg/ml (i.v.) and 0.3 mg/ml (i.g.).
18 healthy adult ICR mice were divided into two groups (9 mice for i.v. group; 9 mice for i.g. group), and administered by tail vein or by gavage after fasting overnight (free drinking water); using the satellite blood collection method, 3 animals were collected at each time point, and then 0.1 ml of blood obtained at different time points was anticoagulated with EDTA-K2, centrifuged at 4° C. for 5 min to separate the plasma, and stored at −80° C. for detection. The sampling time points after i.v. administration were 5 min, 15 min, 0.5 h, 1 h, 2 h, 4 h, 8 h, 12 h, and 24 h; while the sampling time points for i.g. group were before administration (0 h) as well as 0.5 h, 1 h, 2 h, 4 h, 6 h, 8 h, 12 h, and 24 h after administration. Then, the drug concentration in plasma was determined by LC/MS/MS.

Where [3] appears, read: Homo sapiens, 22Rv1, 144 h, read-out: 22RV1 IC50 (nM), 22RV1 cells, 6 days culture, CCK-8, OD 450 nm.

Read-outs that look alike come from different tables or passages of the source.

In the case of `CC(C)(c1ccc(OCc2ccnc(N3CC4(COC4)C3)n2)cc1)c1ccc(O[C@H]2C[C@H](Nc3ccc4c(c3)C(=O)N(C3CCC(=O)NC3=O)C4=O)C2)cc1` (stereo partly shown) [Example 75], in the series with 22RV1 cells (setting [3]), the IC50 was 8 nM. Also, in series [1], the half-maximal degradation concentration (DC50) was less than 10 nM. Moreover, in series [2], the AUC(0-inf) lay in the range of 5000 to 30000 ng·h/mL.

Turning to `CC(C)(c1ccc(OCc2ccnc(N3CC4(COC4)C3)n2)cc1)c1ccc(O[C@H]2C[C@@H](Nc3ccc4c(c3)C(=O)N(C3CCC(=O)NC3=O)C4=O)C2)cc1` (stereo partly shown) [Example 76, 5-(((1s,3s)-3-(4-(2-(4-((2-(2-oxa-6-azaspiro[3.3]heptane-6-yl)pyrimidin-4-yl)methoxy)phenyl)propan-2-yl)phenoxy)cyclobutyl)amino)-2-(2,6-dioxopiperidin-3-yl)isoindolin-1,3-dione], the IC50 with 22RV1 cells (setting [3]) turned out to be 11 nM. In series [1], this molecule had a DC50 of less than 10 nM. Also, the AUC(0-inf) in series [2] was in the range of 1000 to 5000 ng·h/mL.

As to `CC(C)(c1ccc(Oc2ccc(-n3nccn3)nc2)cc1)c1ccc(O[C@H]2C[C@H](Nc3ccc4c(c3)CN(C3CCC(=O)NC3=O)C4=O)C2)cc1` (stereo partly shown) [Example 94], the IC50 in the series on 22RV1 cells (setting [3]) is 4 nM. This molecule also came in with a DC50 in series [1] of less than 10 nM. The AUC(0-inf) in series [2] lay in the range of 1000 to 5000 ng·h/mL.

As to `CC(C)(c1ccc(Oc2cnc(C#N)nc2)cc1)c1ccc(O[C@H]2C[C@H](Nc3ccc4c(c3)C(=O)N(C3CCC(=O)NC3=O)C4=O)C2)cc1` (stereo partly shown) [Example 97, 5-(4-(2-(4-((1r,3r)-3-((2-(2,6-dioxopiperidin-3-yl)-1,3-dioxoisoindolin-5-yl)amino)cyclobutyloxy)phenyl)propan-2-yl)phenoxy)pyrimidin-2-carbonitrile], the IC50 with 22RV1 cells (setting [3]) amounted to 15 nM. For the same molecule, the DC50 in series [1] was less than 10 nM. Moreover, the AUC(0-inf) in series [2] fell in the range of 5000 to 30000 ng·h/mL.

`CC(C)(c1ccc(Oc2ccc(C#N)nn2)cc1)c1ccc(O[C@H]2C[C@H](Nc3ccc4c(c3)C(=O)N(C3CCC(=O)NC3=O)C4=O)C2)cc1` (stereo partly shown) [Example 98, 6-(4-(2-(4-((1r,3r)-3-((2-(2,6-dioxopiperidin-3-yl)-1,3-dioxoisoindolin-5-yl)amino)cyclobutyloxy)phenyl)propan-2-yl)phenoxy) pyridazine-3-carbonitrile]: in the series on 22RV1 cells (setting [3]), the IC50 stood at 4 nM. Besides, the DC50 in series [1] is less than 10 nM. In addition, the AUC(0-inf) in series [2] lay within 100 to 1000 ng·h/mL.

In the case of `Cc1nc(-c2ncc(Oc3ccc(C(C)c4ccc(O[C@H]5C[C@H](Nc6ccc7c(c6)C(=O)N(C6CCC(=O)NC6=O)C7=O)C5)cc4)cc3)cn2)no1` (stereo partly shown) [Example 99], in the series with 22RV1 cells (read-out: 22RV1 IC50, 22RV1 cells, 6 days culture, CCK-8, OD 450 nm), the half-inhibitory concentration (IC50) amounted to 17 nM. The molecule further had a half-maximal degradation concentration (DC50) in series [1] of less than 10 nM. Besides, in series [2], the AUC(0-inf) is 5000 to 30000 ng·h/mL.

As to `CC(=O)c1nccc(COc2ccc(C(C)(C)c3ccc(O[C@H]4C[C@H](Nc5ccc6c(c5)C(=O)N(C5CCC(=O)NC5=O)C6=O)C4)cc3)cc2)n1` (stereo partly drawn) [Example 110, 5-(((trans)-3-(4-(2-(4-((2-acetylpyrimidin-4-yl)methoxy)phenyl)propan-2-yl)phenoxy)cyclobutyl)amino)-2-(2,6-dioxopiperidin-3-yl)isoindolin-1,3-dione], in the series with 22RV1 cells (setting [3]), the half-maximal inhibitory concentration (IC50) worked out at 3 nM. This molecule returned a DC50 in series [1] of less than 10 nM. For the same molecule, the AUC(0-inf) in series [2] lay within 5000 to 30000 ng·h/mL.

For the molecule `CC(O)c1ncc(Oc2ccc(C(C)(C)c3ccc(O[C@H]4C[C@H](Nc5ccc6c(c5)C(=O)N(C5CCC(=O)NC5=O)C6=O)C4)cc3)cc2)cn1` (stereo partly shown) [Example 118], the IC50 in the series with 22RV1 cells (setting [3]) is 3 nM. Besides, the “After oral administration of 3 mg/kg, mouse plasma exposure AUCinf (μg*h/mL)” value in series [2] is on record as “A (30-5 μg*h/mL)”.

Regarding `CC(=O)c1ncc(Oc2ccc(C(C)(C)c3ccc(O[C@H]4C[C@H](Nc5ccc6c(c5)C(=O)N(C5CCC(=O)NC5=O)C6=O)C4)cc3)cc2)cn1` (stereo partly drawn) [Example 119, 5-(((trans)-3-(4-(2-(4-((2-acetylpyrimidin-5-yl)oxy)phenyl)propan-2-yl)phenoxy)cyclobutyl)amino)-2-(2,6-dioxopiperidin-3-yl) isoindolin-1,3-dione], the IC50 in the series on 22RV1 cells (setting [3]) amounted to 2 nM. The same molecule showed a DC50 in series [1] of less than 10 nM. In addition, in series [2], the AUC(0-inf) was 5000 to 30000 ng·h/mL.

As to `CC(O)c1ccc(Oc2ccc(C(C)(C)c3ccc(O[C@H]4C[C@H](Nc5ccc6c(c5)C(=O)N(C5CCC(=O)NC5=O)C6=O)C4)cc3)cc2)nn1` (stereo partly shown) [Example 125], in the series with 22RV1 cells (setting [3]), the IC50 is 10 nM. In addition, the DC50 in series [1] was less than 10 nM. In addition, in series [2], the AUC(0-inf) was in the range of 5000 to 30000 ng·h/mL.

On to `CC(=O)c1ccc(Oc2ccc(C(C)(C)c3ccc(O[C@H]4C[C@H](Nc5ccc6c(c5)C(=O)N(C5CCC(=O)NC5=O)C6=O)C4)cc3)cc2)nn1` (stereo partly drawn) [Example 126, 5-(((trans)-3-(4-(2-(4-((6-acetylpyridazine-3-yl)oxy)phenyl)propan-2-yl)phenoxy)cyclobutyl)amino)-2-(2,6-dioxopiperidin-3-yl)isoindolin-1,3-dione], for which the IC50 in the series with 22RV1 cells (setting [3]) was found to be 6 nM. The molecule also showed a DC50 in series [1] of less than 10 nM. The AUC(0-inf) in series [2] lay within 5000 to 30000 ng·h/mL.

`CC(C)(c1ccc(OCc2ccnc(N3CC4(COC4)C3)n2)cc1)c1ccc(N2CC(Nc3ccc4c(c3)C(=O)N(C3CCC(=O)NC3=O)C4=O)C2)cc1` (stereo not shown) [Example 154]: the IC50 with 22RV1 cells (setting [3]) was 7 nM. In series [1], this molecule registered a DC50 of less than 10 nM. For the same molecule, the AUC(0-inf) in series [2] lay within 1000 to 5000 ng·h/mL.

With `Cc1nc(-c2ccnc(Oc3ccc(C(C)(C)c4ccc(O[C@H]5C[C@H](Nc6ccc7c(c6)C(=O)N(C6CCC(=O)NC6=O)C7=O)C5)cc4)cc3)n2)no1` (stereo partly shown) [Example 166], the concentration for half-maximal inhibition (IC50) with 22RV1 cells (setting [3]) was 6 nM. Further, in series [1], the half-maximal degradation concentration (DC50) was less than 10 nM. In addition, in series [2], the AUC(0-inf) fell in the range of 5000 to 30000 ng·h/mL.

Consider `CCC(CC)(c1ccc(Oc2ccc(C(C)O)nn2)cc1)c1ccc(O[C@H]2C[C@H](Nc3ccc4c(c3)C(=O)N(C3CCC(=O)NC3=O)C4=O)C2)cc1` (stereo partly shown) [Example 175, 2-(2,6-dioxopiperidin-3-yl)-5-(((1r,3r)-3-(4-(3-(4-((6-(1-hydroxylethyl)pyridazine-3-yl)oxy)phenyl)pentan-3-yl)phenoxy)cyclobutyl)amino)isoindolin-1,3-dione], for which the half-maximal inhibitory concentration (IC50) in the series on 22RV1 cells (setting [3]) was determined as 4 nM. In series [1], this molecule came in with a DC50 of less than 10 nM. Also, in series [2], the AUC(0-inf) lay in the range of 1000 to 5000 ng·h/mL.

`CNC(=O)c1nccc(COc2ccc(C(C)(C)c3ccc(OCCCNc4ccc5c(c4)C(=O)N(C4CCC(=O)NC4=O)C5=O)cc3)cc2)n1` (stereo not shown) [Example 183, 4-((4-(2-(4-(3-((2-(2,6-dioxopiperidin-3-yl)-1,3-dioxoisoindolin-5-yl)amino)propoxy)phenyl)propan-2-yl)phenoxy)methyl)-N-methylpyrimidin-2-carbonylamine]: the IC50 with 22RV1 cells (setting [3]) worked out at 20 nM. In addition, the half-maximal degradation concentration (DC50) in series [1] is 11 to 100 nM. Also, in series [2], the AUC(0-inf) fell in the range of 100 to 1000 ng·h/mL.

In series [1], `Cc1nsc(Oc2ccc(C(C)(C)c3ccc(O[C@H]4C[C@H](Nc5ccc6c(c5)C(=O)N(C5CCC(=O)NC5=O)C6=O)C4)cc3)cc2)n1` (stereo partly shown) [Example 591, 2-(2,6-dioxopiperidin-3-yl)-5-((1r,3r)-3-(4-(2-(4-((3-methyl-1,2,4-thiadiazol-5-yl)oxy)phenyl)propan-2-yl)phenoxy)cyclobutyl)aminoisoindolin-1,3-dione] came in with a 50% degradation concentration (DC50) of 11 to 100 nM. The AUC(0-inf) in series [2] fell in the range of 5000 to 30000 ng·h/mL.

On to `Cc1nnc(-c2nnc(Oc3ccc(C(C)(C)c4ccc(O[C@H]5C[C@H](Nc6ccc7c(c6)C(=O)N(C6CCC(=O)NC6=O)C7=O)C5)cc4)cc3)s2)o1` (stereo partly shown) [Example 593], for which the DC50 in series [1] fell in the range of 11 to 100 nM. The AUC(0-inf) in series [2] lay in the range of 5000 to 30000 ng·h/mL.

As for `Cc1nc(-c2cnc(Oc3ccc(C(C)(C)c4ccc(O[C@H]5C[C@@H](Nc6ccc7c(c6)C(=O)N(C6CCC(=O)NC6=O)C7=O)C5)cc4)cc3)cn2)no1` (stereo partly shown) [Example 598, 2-(2,6-dioxopiperidin-3-yl)-5-(((1s,3s)-3-(4-(2-(4-((5-(5-methyl-1,2,4-oxadiazol-3-yl)pyrazin-2-yl)oxy)phenyl)propan-2-yl)phenoxy)cyclobutyl)amino)isoindolin-1,3-dione], in series [1], the DC50 lay in the range of 11 to 100 nM. Moreover, the AUC(0-inf) in series [2] lay within 5000 to 30000 ng·h/mL.

Take `Cc1nc(-c2cncc(Oc3ccc(C(C)(C)c4ccc(O[C@H]5C[C@@H](Nc6ccc7c(c6)C(=O)N(C6CCC(=O)NC6=O)C7=O)C5)cc4)cc3)n2)no1` (stereo partly shown) [Example 599]: the DC50 in series [1] fell in the range of 11 to 100 nM. The AUC(0-inf) in series [2] is 5000 to 30000 ng·h/mL.

The values are drawn from patent publication US20250051347A1, “BIFUNCTIONAL CHIMERIC HETEROCYCLIC COMPOUND AND USE THEREOF AS ANDROGEN RECEPTOR DEGRADER” (Hinova Pharmaceuticals, Inc., priority 2021, published 2025).
